# Test results from US7419788B2, “Method for screening anti-bacterial agents” (priority 2001, dated 2008).
# Molecular target: T1, transpeptidase enzyme (PBP1b) (Escherichia coli, UniProt P02919)
# T1 construct: the ponB gene encoding PBP1b is overexpressed since the strain contains a plasmid comprising a further copy of ponB under the control of its native promoter; made in house; host or cells: Escherichia coli AMA1004 ΔponA; pBS96 (membranes solubilised with 1% CHAPS and 1M NaCl; supernatant used)
# T1 sequence (P02919 whole entry): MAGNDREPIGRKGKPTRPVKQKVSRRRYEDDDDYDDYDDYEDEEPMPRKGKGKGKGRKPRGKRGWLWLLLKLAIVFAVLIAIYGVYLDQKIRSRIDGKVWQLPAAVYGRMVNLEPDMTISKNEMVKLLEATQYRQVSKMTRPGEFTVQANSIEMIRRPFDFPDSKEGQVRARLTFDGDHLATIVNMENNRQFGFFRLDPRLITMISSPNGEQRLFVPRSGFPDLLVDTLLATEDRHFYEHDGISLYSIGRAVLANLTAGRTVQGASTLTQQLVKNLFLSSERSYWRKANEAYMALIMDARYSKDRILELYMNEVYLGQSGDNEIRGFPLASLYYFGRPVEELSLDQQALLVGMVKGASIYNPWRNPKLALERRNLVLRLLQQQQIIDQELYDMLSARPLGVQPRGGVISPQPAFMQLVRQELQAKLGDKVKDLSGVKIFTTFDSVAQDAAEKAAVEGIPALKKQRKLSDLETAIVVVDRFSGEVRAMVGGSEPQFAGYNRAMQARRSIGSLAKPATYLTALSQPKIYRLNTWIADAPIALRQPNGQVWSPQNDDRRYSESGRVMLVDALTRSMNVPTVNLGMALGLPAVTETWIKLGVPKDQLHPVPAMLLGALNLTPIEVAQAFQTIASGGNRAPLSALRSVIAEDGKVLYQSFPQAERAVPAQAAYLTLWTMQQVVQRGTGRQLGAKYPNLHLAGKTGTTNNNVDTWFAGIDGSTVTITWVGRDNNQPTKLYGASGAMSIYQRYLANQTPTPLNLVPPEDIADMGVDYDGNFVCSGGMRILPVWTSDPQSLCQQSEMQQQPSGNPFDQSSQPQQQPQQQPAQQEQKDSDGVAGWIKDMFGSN
# Assay: Scintillation proximity assay for formation of radiolabelled cross-linked peptidoglycan (transpeptidase inhibition)
# Type: biochemical
# Method: 4 mg of Escherichia coli AMA1004 cell membranes prepared as described in WO 99/60155 were incubated with 5 ml of 100 mM ampicillin in 50 mM Tris HCl buffer pH 7.5 and 0.1 mM MgCl2 for 30 minutes at room temperature. The membranes were sedimented by centrifugation at 150,000×g for 15 minutes and then washed three times. They were finally resuspended in 1 ml of 50 mM Tris HCl buffer and 0.1 mM MgCl2. […]
# The membranes of this E. coli strain were prepared as described in WO 99/60155. They were then treated with a detergent, 1% (3-[(3-cholamidopropyl)dimethylammonio]-1-propane-sulphonate (CHAPS), and 1M NaCl at a protein concentration of 5 mg/ml for 1 hour at room temperature. The mixture was then centrifuged at 150,000×g for 15 minutes in a Beckman table top ultracentrifuge and the supernatant containing PBP1b collected. The quantity of PBP1b protein used was the “soluble fraction” equivalent to 5 μg of starting membrane. […]
# The microtitre plate was left for 3 to 10 hours at room temperature before being counted in the “Microbeta Trilux” counter. […]
# Table 1 below enumerates the inhibitory effects of penicillin G on the transpeptidase enzyme (after subtracting the corresponding 0% reaction readings).
smiles,measurement,setting,value
"CC1(C)S[C@@H]2[C@H](NC(=O)Cc3ccccc3)C(=O)N2[C@H]1C(=O)O [Penicillin G, penicillin G]",Counts per minute,"after subtracting the corresponding 0% reaction readings, PBP1b extract from E. coli AMA1004 ΔponA, pBS96, ampicillin-treated AMA1004 membranes, 37° C. for 15 minutes",319
same,% Inhibition,"inhibitory effect on the transpeptidase enzyme, relative to wells with no test compound (100% reaction controls), test concentration not given",94%
